Source: US20200165225A1, “BACE1 INHIBITORS FOR TREATMENT OF ALZHEIMER'S DISEASE” (NantBio, Inc., priority 2017, published 2020)

Target: BACE-1 (Homo sapiens, UniProt P56817)
Test: Inhibition of BACE cleavage of a P5-P5′ fluorescent peptide substrate containing the Swedish mutation cleavage site
Assay type: biochemical
Settings: fluorogenic P5-P5′ BACE-1 substrate; 30 minutes preincubation at room temperature; signal read every 30 minutes at 25° C. for 2 hr
Experimental: The compounds were evaluated for inhibition of BACE cleavage of a P5-P5′ fluorescent peptide substrate containing the Swedish mutation cleavage site. In detail, 4 μL of assay buffer was added to each well, followed by 2 μL of BACE-1 diluted in assay buffer to 7.5 ng/uL. Then, 2 μL of compound, at concentrations along an 11 pt. two-fold dilution series starting at 10 uM, or 0.5 uM, were added to the appropriated wells and incubated for 30 minutes at room temperature. For all dilutions of inhibitor, the compound stock solutions of 10 mM in DMSO were diluted to 50 uM in water; subsequent dilutions were in 0.5% DMSO. Afterwards, 2 μL of fluorogenic P5-P5′ BACE-1 substrate, diluted to 50 μM in assay buffer, were added to each well, after which the signal generated was read every 30 minutes at 25° C. for 2 hr.

Chain of BACE-1 (P56817 46-501): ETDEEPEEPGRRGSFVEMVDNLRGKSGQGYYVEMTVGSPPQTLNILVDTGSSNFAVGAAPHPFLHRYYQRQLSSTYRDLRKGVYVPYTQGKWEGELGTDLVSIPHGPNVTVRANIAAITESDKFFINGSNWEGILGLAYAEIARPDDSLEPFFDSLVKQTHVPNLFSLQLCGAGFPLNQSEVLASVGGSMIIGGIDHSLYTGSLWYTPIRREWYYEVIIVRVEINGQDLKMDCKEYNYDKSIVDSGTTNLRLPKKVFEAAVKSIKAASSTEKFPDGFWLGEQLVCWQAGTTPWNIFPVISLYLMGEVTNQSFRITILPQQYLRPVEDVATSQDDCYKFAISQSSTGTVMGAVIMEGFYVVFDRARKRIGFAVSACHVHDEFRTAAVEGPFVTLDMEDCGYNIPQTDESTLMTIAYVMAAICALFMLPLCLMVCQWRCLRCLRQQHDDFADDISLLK

Compound | IC50 [nM]
Cc1cc(C2(c3ccnc(C(F)(F)F)c3)N=C(N)N(C)C2=O)ccc1OC(F)F (centres unmarked) [Compound 3] | 9720
CN1C(=O)C(c2ccc(C(F)(F)F)nc2)(c2cccc(-c3cncnc3)c2)N=C1N (centres unmarked) [Compound 4] | 980
CN1C(=O)C(c2cccc(-c3cncnc3)c2)(c2ccnc(C(F)F)c2)N=C1N (centres unmarked) [Compound 1] | 30
CN1C(=O)C(c2cccc(-c3cncnc3)c2)(c2cccc(C(F)F)c2)N=C1N (centres unmarked) [Compound 8] | 170
CN1C(=O)C(c2cccc(-c3cncnc3)c2)(c2ccnc(C(F)(F)F)c2)N=C1N (centres unmarked) [Compound 2] | 70
CN1C(=O)C(c2ccc(C(F)F)nc2)(c2cccc(-c3cncnc3)c2)N=C1N (centres unmarked) [Compound 6] | 940
CN1C(=O)C(c2cccc(-c3cncnc3)c2)(c2cccc(C(F)F)n2)N=C1N (centres unmarked) [Compound 7] | 500
CN1C(=O)C(c2cccc(-c3cncnc3)c2)(c2cccc(C(F)(F)F)n2)N=C1N (centres unmarked) [Compound 5] | 7860
